{"source": "patent US20130296311A1", "about": "“INHIBITORS OF HCV NS5A” (PRESIDIO PHARMACEUTICALS, INC., priority 2010, published 2013)"}
{"test_system": "HCV 1b_Huh-Luc/Neo-ET cell line persistently expressing a bicistronic genotype 1b replicon in Huh 7 cells", "assay": "HCV replicon assay (luciferase readout, 72 h)", "type": "cell-based, HCV genotype 1b", "settings": "Hepatitis C virus, Huh-7, 72 h, read-out: Inhibition of HCV genotype 1b", "procedure,_shortened": "(§1)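 EC50 values come from a four-parameter fit of luciferase signal as % of untreated control, repeated across several determinations. The signal is from the HCV 1b_Huh-Luc/Neo-ET replicon line, dosed in triplicate one day post-plating and incubated 72 h before Bright-Glo readout.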", "units": {"EC50": "nM"}}
{"smiles": "COC(=O)N[C@@H](C(=O)N1CCC[C@H]1c1ncc(-c2ccc(C#Cc3ccc(-c4cnc([C@@H]5CCCN5C(=O)[C@@H]5CCCO5)[nH]4)cc3)cc2)[nH]1)c1ccccc1", "note": "[Compound 186]", "EC50": "< 1"}
{"smiles": "COC(=O)N[C@@H](Cc1c[nH]c2ccccc12)C(=O)N1CCC[C@H]1c1ncc(-c2ccc(C#Cc3ccc4nc([C@@H]5CCCN5C(=O)[C@H](Cc5c[nH]c6ccccc56)NC(=O)OC)[nH]c4c3)cc2)[nH]1", "note": "[Compound 1057]", "EC50": "< 1"}
{"smiles": "COC(=O)N[C@H](C(=O)N1CCC[C@H]1c1nc2c([nH]1)-c1ccc(C#Cc3ccc4nc([C@@H]5CCCN5C(=O)[C@@H](NC(=O)OC)C5CCOCC5)[nH]c4c3)cc1CC2)C(C)C", "note": "[Compound 1102]", "EC50": "< 1"}
{"smiles": "COC(=O)N[C@H](C(=O)N1CCC[C@H]1c1ncc(-c2ccc(C#Cc3ccc4nc([C@@H]5CCCN5C(=O)[C@@H](NC(=O)OC)C5CCCC5)[nH]c4c3)cc2)[nH]1)C1CCCC1", "note": "[Compound 1025]", "EC50": "< 1"}
{"smiles": "COC(=O)N[C@H](C(=O)N1CCC[C@H]1c1ncc(C#Cc2ccc(-c3ccc4nc([C@@H]5CCCN5C(=O)[C@H](NC(=O)OC)c5ccccc5)[nH]c4c3)nc2)[nH]1)C(C)C", "note": "[Compound 1087]", "EC50": "< 1"}
{"smiles": "COC(=O)N[C@H](C(=O)N1CCC[C@H]1c1ncc(-c2ccc(C#Cc3ccc(-c4cnc([C@@H]5CCCN5C(=O)[C@@H](Nc5cccnc5)C(C)C)[nH]4)cc3)cc2)[nH]1)C(C)C", "note": "[Compound 995]", "EC50": "< 1"}
{"smiles": "COC(=O)N[C@H](C(=O)N1CCC[C@H]1c1ncc(-c2ccc(C#Cc3ccc(-c4cnc([C@@H]5CCCN5C(=O)[C@@H](NC(=O)OC)[C@@H](C)O)[nH]4)cc3)cc2)[nH]1)C(C)C", "note": "[Compound 971]", "EC50": "< 1"}
{"smiles": "COC(=O)N[C@H](C(=O)N[C@@H](C)c1ncc(-c2ccc(C#Cc3ccc(-c4cnc([C@@H]5CCCN5C(=O)[C@@H](C(C)C)N(C)C)[nH]4)cc3)cc2)[nH]1)C(C)C", "note": "[Compound 964]", "EC50": "1 to 9.9"}
{"smiles": "CC(C)[C@H](NC(=O)C1CC1)C(=O)N1CCC[C@H]1c1ncc(-c2ccc(C#Cc3ccc(-c4cnc([C@@H]5CCCN5C(=O)[C@@H](NC(=O)C5CC5)C(C)C)[nH]4)cc3)cc2)[nH]1", "note": "[Compound 170]", "EC50": "1 to 9.9"}
{"smiles": "COC(=O)N[C@H](C(=O)N1CCC[C@H]1c1ncc(-c2ccc(C#Cc3ccc(-c4cnc([C@@H]5CCCN5C(=O)[C@@H](NC(=O)OC)C(C)C)[nH]4)cn3)cc2)[nH]1)C(C)C", "note": "[Compound 1009]", "EC50": "< 1"}
{"smiles": "C[C@@H](NC(=O)[C@@H]1CCCN1C(=O)[C@H](NC(=O)OC(C)(C)C)c1ccccc1)c1ccc(C#Cc2ccc(-c3cnc([C@@H]4CCCN4C(=O)[C@H](NC(=O)OC(C)(C)C)c4ccccc4)[nH]3)cc2)cc1", "note": "[Compound 167]", "EC50": "1 to 9.9"}
{"smiles": "CN(C)[C@@H](C(=O)N1CCC[C@H]1c1ncc(-c2ccc(C#Cc3ccc(-c4cnc([C@@H]5CCCN5C(=O)[C@H](NS(C)(=O)=O)c5ccccc5)[nH]4)cc3)cc2)[nH]1)c1ccccc1", "note": "[Compound 228]", "EC50": "< 1"}
{"smiles": "COC(=O)N[C@H](C(=O)N1CCC[C@H]1c1nc(-c2ccc3cc(C#Cc4[nH]c([C@@H]5CCCN5C(=O)[C@@H](NC(=O)OC)C(C)C)nc4C)ccc3c2)c[nH]1)C(C)C", "note": "[Compound 1081]", "EC50": "< 1"}
{"smiles": "COC(=O)N[C@@H](CCC(N)=O)C(=O)N1CCC[C@H]1c1ncc(-c2ccc(C#Cc3ccc4nc([C@@H]5CCCN5C(=O)[C@H](CCC(N)=O)NC(=O)OC)[nH]c4c3)cc2)[nH]1", "note": "[Compound 1051]", "EC50": "1 to 9.9"}
{"smiles": "COC(=O)N[C@@H](C(=O)N1CCC[C@H]1c1ncc(-c2ccc(C#Cc3ccc(-c4cnc([C@@H]5CCCN5C(=O)[C@H](NC(=O)N5CCOCC5)c5ccccc5)[nH]4)cc3)cc2)[nH]1)c1ccccc1", "note": "[Compound 224]", "EC50": "< 1"}
{"smiles": "CCC(CC)[C@H](NC(=O)OC)C(=O)N1CCC[C@H]1c1ncc(-c2ccc(C#Cc3ccc4nc([C@@H]5CCCN5C(=O)[C@@H](NC(=O)OC)C(CC)CC)[nH]c4c3)cc2)[nH]1", "note": "[Compound 1030]", "EC50": "< 1"}
{"smiles": "O=C(N[C@@H](C(=O)N1CCC[C@H]1c1ncc(-c2ccc(C#Cc3ccc(-c4cnc([C@@H]5CCCN5C(=O)[C@H](NC(=O)N5CCOCC5)c5ccccc5)[nH]4)cc3)cc2)[nH]1)c1ccccc1)C1CC1", "note": "[Compound 239]", "EC50": "< 1"}
{"smiles": "COC(=O)N[C@H](C(=O)N1CCC[C@H]1c1ncc(-c2ccc(C#Cc3ccc4nc([C@@H]5CCCN5C(=O)[C@@H](NC(=O)OC)[C@@H](C)O)[nH]c4c3)cc2)[nH]1)[C@@H](C)O", "note": "[Compound 863]", "EC50": "< 1"}
{"smiles": "C[C@@H](NC(=O)C1CC1)C(=O)N1CCC[C@H]1c1ncc(C#Cc2ccc(-c3cnc([C@@H]4CCCN4C(=O)[C@@H](C)NC(=O)C4CC4)[nH]3)cc2)[nH]1", "note": "[Compound 111]", "EC50": "1 to 9.9"}
{"smiles": "COC(=O)NC1(C(=O)N2CCC[C@H]2c2ncc(-c3ccc(C#Cc4ccc5nc([C@@H]6CCCN6C(=O)C6(NC(=O)OC)CCCC6)[nH]c5c4)cc3)[nH]2)CCCC1", "note": "[Compound 1044]", "EC50": "10 to 999"}
{"smiles": "COC[C@@H]1CCCN1C(=O)N[C@@H](C(=O)N1CCC[C@H]1c1ncc(-c2ccc(C#Cc3ccc(-c4cnc([C@@H]5CCCN5C(=O)[C@H](NC(=O)OC)c5ccccc5)[nH]4)cc3)cc2)[nH]1)c1ccccc1", "note": "[Compound 260]", "EC50": "< 1"}
{"smiles": "COC(=O)N[C@@H](C(=O)N1CCC[C@H]1c1ncc(-c2ccc(C#Cc3ccc(-c4cnc([C@@H]5CCCN5C(=O)[C@H](NC(=O)[C@H]5CCCN5C)c5ccccc5)[nH]4)cc3)cc2)[nH]1)c1ccccc1", "note": "[Compound 204]", "EC50": "< 1"}
{"smiles": "CN(C)[C@@H](C(=O)N1CCC[C@H]1c1ncc(C#Cc2ccc(C#Cc3cnc([C@@H]4CCCN4C(=O)[C@@H](c4ccccc4)N(C)C)[nH]3)cc2)[nH]1)c1ccccc1", "note": "[Compound 305]", "EC50": "< 1"}
{"smiles": "COC(=O)N[C@H](C(=O)N1CCC[C@H]1c1ncc(-c2ccc(C#Cc3ccc(-c4cnc([C@@H]5CCCN5C(=O)[C@@H](NC(=O)OC)C(C)C)[nH]4)cc3)cc2)[nH]1)C(C)C", "note": "[Compound 266]", "EC50": "< 1"}
{"smiles": "COC(=O)N[C@H](C(=O)N1CCC[C@H]1c1ncc(-c2ccc(C#Cc3ccc(-c4cnc([C@@H]5CCCN5C(=O)[C@H](C(C)C)N5CCOC5=O)[nH]4)cc3)cc2)[nH]1)C(C)C", "note": "[Compound 996]", "EC50": "< 1"}
{"smiles": "O=C(NCC(=O)N1CCC[C@H]1c1ncc(C#Cc2ccc(-c3cnc([C@@H]4CCCN4C(=O)CNC(=O)C4CC4)[nH]3)cc2)[nH]1)C1CC1", "note": "[Compound 113]", "EC50": "10 to 999"}
{"smiles": "O=C(N[C@@H](C(=O)N1CCC[C@H]1c1nc(-c2ccc3cc(C#Cc4cnc([C@@H]5CCCN5C(=O)[C@H](NC(=O)C5CC5)c5ccccc5)[nH]4)ccc3c2)c[nH]1)c1ccccc1)C1CC1", "note": "[Compound 804]", "EC50": "< 1"}
{"smiles": "CC(C)[C@H](NC(=O)N1CCNCC1)C(=O)N1CCC[C@H]1c1ncc(-c2ccc(C#Cc3ccc(-c4cnc([C@@H]5CCCN5C(=O)[C@@H](NC(=O)N5CCNCC5)C(C)C)[nH]4)cc3)cc2)[nH]1", "note": "[Compound 967]", "EC50": "10 to 999"}
{"test_system": "HCV 1b_Huh-Luc/Neo-ET cell line persistently expressing a bicistronic genotype 1b replicon in Huh 7 cells", "assay": "HCV replicon assay (luciferase readout, 72 h)", "type": "cell-based, HCV genotype 1b", "settings": "Hepatitis C virus, Huh-7, read-out: Inhibition of HCV genotype 1b", "procedure,_shortened": "as §1", "units": {"EC50": "nM"}}
{"smiles": "CC[C@H](C)[C@H](NC(=O)OC)C(=O)N1CCC[C@H]1c1ncc(-c2ccc(C#Cc3ccc4nc([C@@H]5CCCN5C(=O)[C@@H](NC(=O)OC)[C@@H](C)OC)[nH]c4c3)cc2)[nH]1", "note": "[Compound 1248]", "EC50": "< 1"}
{"smiles": "COC(=O)N[C@H](C(=O)N1CCC[C@H]1c1ncc(-c2ccc3cc(C#Cc4[nH]c([C@@H]5CCCN5C(=O)[C@@H](NC(=O)OC)C5CCCC5)nc4C(F)(F)F)ccc3c2)[nH]1)C1CCCC1", "note": "[Compound 1254]", "EC50": "< 1"}
{"smiles": "COC(=O)N[C@H](C(=O)N1CCC[C@H]1c1ncc(-c2ccc(C#Cc3ccc(-c4cnc([C@@H]5CCCN5C(=O)[C@@H](NC(=O)OC)C5CCOCC5)[nH]4)cc3)cc2)[nH]1)C(C)C", "note": "[Compound 1219]", "EC50": "< 1"}
